Data taken from patent US11382912B2, “Controlled-release preparation” (NIPPON SHINYAKU CO., LTD., priority 2017, dated 2022).

Key:
[1] = pH of alkaline substance at 0.1 wt % in water; type: physicochemical; settings: dissolved or dispersed in water at 0.1 wt %
Protocol: The pH of the alkaline substance was measured according to the following method.
The alkaline substance was dissolved (or dispersed) in water at 0.1 wt %, and the pH of the solution (or the dispersion) was determined using a pH METER HM-30R (manufactured by DKK-TOA Corporation).

[2] = known, NPL 1; cited from earlier work
[3] = target: PGI2 receptor (Homo sapiens, UniProt P43119); settings: known, PTL 7 to PTL 12; cited from earlier work
Chain of PGI2 receptor (P43119 whole entry, species assumed): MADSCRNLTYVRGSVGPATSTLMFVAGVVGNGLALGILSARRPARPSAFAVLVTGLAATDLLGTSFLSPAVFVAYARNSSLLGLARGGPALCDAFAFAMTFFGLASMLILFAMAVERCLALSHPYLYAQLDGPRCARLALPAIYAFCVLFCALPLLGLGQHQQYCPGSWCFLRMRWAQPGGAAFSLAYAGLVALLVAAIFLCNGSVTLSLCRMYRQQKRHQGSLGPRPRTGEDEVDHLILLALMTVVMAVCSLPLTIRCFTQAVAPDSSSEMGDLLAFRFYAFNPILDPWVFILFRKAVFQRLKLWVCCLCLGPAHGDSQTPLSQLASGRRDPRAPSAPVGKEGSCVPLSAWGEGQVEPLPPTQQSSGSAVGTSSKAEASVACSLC

Row | SMILES | pH [1] | Solubility [2] | PGI2 receptor agonistic effect [3]
1 | O=C([O-])[O-].[Ca+2] [Calcium carbonate] | 9.8 |  | 
2 | [Ca+2].[OH-].[OH-] [Calcium hydroxide] | 12.2 |  | 
3 | CC(C)N(CCCCOCC(=O)NS(C)(=O)=O)c1cnc(-c2ccccc2)c(-c2ccccc2)n1 [Compound A, 2-{4-[N-(5,6-diphenylpyrazin-2-yl)-N-isopropylamino]butyloxy}-N-(methylsulfonyl)acetamide] |  | depend on pH | excellent
4 | O=C([O-])[O-].[Na+].[Na+] [Dried sodium carbonate] | 11.0 |  | 
5 | [Mg+2].[OH-].[OH-] [Magnesium hydroxide] | 10.3 |  | 
6 | [O]=[Mg] [Magnesium oxide] | 10.7 |  | 
7 | CNC[C@H](O)[C@@H](O)[C@H](O)[C@H](O)CO [Meglumine] | 10.6 |  | 
8 | O=C([O-])[O-].[K+].[K+] [Potassium carbonate] | 10.9 |  | 
9 | CC(=O)[O-].[Na+] [Sodium acetate] | 7.6 |  | 
10 | O=C([O-])O.[Na+] [Sodium bicarbonate] | 8.5 |  | 
11 | O=P([O-])([O-])O.[Na+].[Na+] [Sodium hydrogen phosphate] | 9.2 |  | 
12 | O=C([O-])CC(O)(CC(=O)[O-])C(=O)[O-].[Na+].[Na+].[Na+] [Trisodium citrate] | 8.3 |  | 
